Data as given in PMC7687371, “Quantitative in Vitro to in Vivo Extrapolation (QIVIVE) for Predicting Reduced Anogenital Distance Produced by Anti-Androgenic Pesticides in a Rodent Model for Male Reproductive Disorders” (Environmental Health Perspectives, 2020).
Marks after values point to notes of the source that are not given here.

Assays:
NCI-H295R cells = assay: H295R steroidogenesis assay; assay type: cell-based, human
Experimental: To capture effects on steroid hormone synthesis (testosterone and androstendione), we tested all 12 pesticides in the H295R assay with the human adrenocortical carcinoma cell line NCI-H295R (American Type Culture Collection no. CRL-2,128, LGC Standards), as previously described ([Hecker et al. 2011]; [Rosenmai et al. 2013]). In brief, cells were cultured in DMEM/F-12 +glutamine medium with HEPES buffer (Invitrogen) containing 1% insulin-transferrin-sodium selenite plus Premix (VWR) and 2.5% Nu-Serum (BD Bioscience) at 37°C in a 5% CO2 atmosphere. The day before exposure, cells were seeded 300,000 per well in clear 24-well plates (VWR Corning). Cells were exposed for 48 h to control (Forskolin: 1μM , 10μM (Sigma-Aldrich); and Prochloraz: 0.3μM , 3μM (VWR-Bie and Berntsen) or test compounds. The vehicle (DMSO) concentration was kept constant in all wells (0.1%). After 48 h, the exposure culture medium was removed and stored at –80°C until the levels of 10 steroid hormones (testosterone, androstenedione, aldosterone, corticosterone, cortisol, dehydroepiandrosterone, 17α-hydroxyprogesterone , progesterone, estrone, and 17β-estradiol ) were quantified using the high-performance liquid chromatography–tandem mass spectrometry method described elsewhere ([Mortensen and Pedersen 2007]). Minor modifications were made to accommodate a smaller sample size and to include more hormones. The liquid chromatography system (Agilent 1100) was equipped with an Atlantis C18 column ( 2.1×150mm , 3μm ) (Waters Corp.) maintained at 40°C. The sample injection volume was 50μL . […] The mass spectrometer was a Quattro Ultima triple quadrupole instrument (Waters Corp.). […] Each pesticide was tested in 2-fold serial dilutions at concentrations between 0.8 and 50μM in three independent experiments, and hormone levels were normalized to the solvent controls containing 0.1% DMSO. Cell viability was evaluated by using the 3-(4,5-dimethylthiazol-2-yl)-2,5- diphenyltetrazolium bromide (MTT) assay (Sigma) as previously described ([Hecker et al. 2011]; [Rosenmai et al. 2013]). Fluorescence was measured (excitation 560 nm , emission 590 nm ) using a Wallac Victor2 1420 multilabel counter (PerkinElmer).

[1] = PBK model first-order kinetic parameters fitted to in vivo ADME data; parameters: species or system rat; settings: PBK model parameter
[2] = parameters: method as in U.S. EPA 2012; settings: EPI Suite, experimental preferred over modeled; ref U.S. EPA 2012; cited from earlier work
[3] = parameters: method as in EFSA 2009; settings: 24 h after dosing; ref EFSA 2009; cited from earlier work
[4] = ref Wetmore et al. (2012); cited from earlier work
pregnant dams and pups = settings: ref EFSA's Draft Assessment Reports (DARs); cited from earlier work

C=CCOC(Cn1ccnc1)c1ccc(Cl)cc1Cl (stereo not shown) [Imazalil, imazalil]
Effect on androgen (steroid) synthesis, in words (NCI-H295R cells; H295R steroidogenesis assay): inhibited testosterone synthesis | IC20 (NCI-H295R cells; Homo sapiens, NCI-H295R, read-out: Testosterone inhibition (IC20 µM)): 500 nM | Androstendione, LOEC (NCI-H295R cells; multiple contrast tests): 0.8 µM | Corticosterone, LOEC (NCI-H295R cells; multiple contrast tests): 0.8 µM | Cortisol, LOEC (NCI-H295R cells; multiple contrast tests): 0.8 µM | DHEA, LOEC (NCI-H295R cells; multiple contrast tests): 0.8 µM | Estradiol, LOEC (NCI-H295R cells; multiple contrast tests): 0.8 µM | OH-Progesterone, LOEC (NCI-H295R cells; multiple contrast tests): 0.8 µM | Progesterone, LOEC (NCI-H295R cells; multiple contrast tests): 0.8 µM | Testosterone, lowest observed effect concentration (LOEC) (NCI-H295R cells; multiple contrast tests): 0.8 µM | Fecal excretion rate from gut (L/h) KFeces [1]: 0.5 L/h | Portal GI absorption rate into liver (L/h) KAS [1]: 1 L/h | Urine excretion rate from kidney (L/h) KUrine [1]: 0.53 L/h | log Kow [2]: 3.82 | Number of metabolites discovered in urine and feces [3]: at least 25 | Unbound plasma fraction (%) [4]: 4.8^g % | Critical toxicity (pregnant dams and pups): Increased duration of gestation , effects on pups/fetuses related to maternal toxicity | LOAEL (mg/kg bw) (pregnant dams and pups): 80 mg/kg bw | NOAEL (mg/kg bw) (pregnant dams and pups): 20 mg/kg bw
